Results published in ChEMBL document CHEMBL1201862, “PubChem BioAssay data set” (2004).
Active and inactive are the calls of the source.

Tests used:
[1] = target: DNA dC->dU-editing enzyme APOBEC-3G (Homo sapiens, UniProt Q9HC16); test: Dose Response confirmation of small molecule APOBEC3G DNA Deaminase Inhibitors via a fluorescence-based single-stranded DNA deaminase assay. [Related pubchem assays (depositor defined):AID493012, AID493028]; format: functional
[2] = ADAM10 inhibitors, peptide cleavage, dose response, biochemical, QFRET (AID 743254);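 note: ADAM10 enzyme with the DM2 quenched FRET peptide as substrate; EDANS fluorescence gain as the protease cuts the substrate; inhibitor potency against ADAM10 proteolytic activity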
[3] = target: Disintegrin and metalloproteinase domain-containing protein 17 (Homo sapiens, UniProt P78536); test: ADAM17 protease inhibitors, dose response, counter-screen for ADAM10 exosite inhibitor project, biochemical, quenched FRET substrate (AID 743253)
Disintegrin and metalloproteinase domain-containing protein 17, sequence (P78536 whole entry, the tested form may be a part): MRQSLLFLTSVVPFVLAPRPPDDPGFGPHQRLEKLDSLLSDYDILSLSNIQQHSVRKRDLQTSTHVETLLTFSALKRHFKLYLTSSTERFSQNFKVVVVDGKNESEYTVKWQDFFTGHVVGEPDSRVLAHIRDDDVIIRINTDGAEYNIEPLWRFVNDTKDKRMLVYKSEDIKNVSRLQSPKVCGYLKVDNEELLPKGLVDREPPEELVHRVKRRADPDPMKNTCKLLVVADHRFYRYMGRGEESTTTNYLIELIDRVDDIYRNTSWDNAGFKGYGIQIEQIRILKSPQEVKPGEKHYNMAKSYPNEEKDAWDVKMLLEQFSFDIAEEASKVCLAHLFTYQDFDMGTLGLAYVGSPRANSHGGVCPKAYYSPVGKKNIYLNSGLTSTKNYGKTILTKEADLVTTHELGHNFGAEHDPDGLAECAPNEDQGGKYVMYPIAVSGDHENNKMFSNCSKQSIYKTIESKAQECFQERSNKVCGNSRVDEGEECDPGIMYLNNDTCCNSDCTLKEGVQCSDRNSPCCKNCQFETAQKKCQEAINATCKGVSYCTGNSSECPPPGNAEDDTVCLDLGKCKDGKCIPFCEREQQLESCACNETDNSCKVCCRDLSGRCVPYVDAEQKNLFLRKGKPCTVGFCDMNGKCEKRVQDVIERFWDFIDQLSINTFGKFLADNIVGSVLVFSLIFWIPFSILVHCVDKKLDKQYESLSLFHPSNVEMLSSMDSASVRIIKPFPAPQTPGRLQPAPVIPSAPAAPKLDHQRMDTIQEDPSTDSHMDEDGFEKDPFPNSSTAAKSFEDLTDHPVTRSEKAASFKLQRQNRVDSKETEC

[4] = RKO cell viability reduction, dose response, CellTiter-Glo luminescence (AID 1117322); format: functional
[5] = CellTiter-Glo luminescent dose response of DLD-1 viability loss (AID 1117352); format: functional
[6] = Concentration-dependent survival of SW480 colon cancer line, luminescence detection with CellTiter-Glo, half-maximal inhibitory concentration (AID 1117338); format: functional
[7] = cytotoxicity toward HCT116 cells – cell-based, CellTiter-Glo luminescence, IC50, dose response (AID 1117332); format: functional; conditions: HCT-116
[8] = cytotoxicity toward Colo320 cells – cell-based, CellTiter-Glo luminescence, IC50, dose response (AID 1117334); format: functional; conditions: COLO 320
[9] = cytotoxicity toward HT-29 cells – cell-based, CellTiter-Glo luminescence, IC50, dose response (AID 1117330); format: functional
[10] = SNU-C1 cell viability reduction, dose response, CellTiter-Glo luminescence (AID 1117323); format: functional, cell-based
[11] = target: Voltage-gated inwardly rectifying potassium channel KCNH2 (Homo sapiens, UniProt Q12809); test: hERG protection from proarrhythmic block, potency, dose response, cell-based, thallium flux (AID 2121); format: ADME
Voltage-gated inwardly rectifying potassium channel KCNH2, sequence (Q12809 whole entry): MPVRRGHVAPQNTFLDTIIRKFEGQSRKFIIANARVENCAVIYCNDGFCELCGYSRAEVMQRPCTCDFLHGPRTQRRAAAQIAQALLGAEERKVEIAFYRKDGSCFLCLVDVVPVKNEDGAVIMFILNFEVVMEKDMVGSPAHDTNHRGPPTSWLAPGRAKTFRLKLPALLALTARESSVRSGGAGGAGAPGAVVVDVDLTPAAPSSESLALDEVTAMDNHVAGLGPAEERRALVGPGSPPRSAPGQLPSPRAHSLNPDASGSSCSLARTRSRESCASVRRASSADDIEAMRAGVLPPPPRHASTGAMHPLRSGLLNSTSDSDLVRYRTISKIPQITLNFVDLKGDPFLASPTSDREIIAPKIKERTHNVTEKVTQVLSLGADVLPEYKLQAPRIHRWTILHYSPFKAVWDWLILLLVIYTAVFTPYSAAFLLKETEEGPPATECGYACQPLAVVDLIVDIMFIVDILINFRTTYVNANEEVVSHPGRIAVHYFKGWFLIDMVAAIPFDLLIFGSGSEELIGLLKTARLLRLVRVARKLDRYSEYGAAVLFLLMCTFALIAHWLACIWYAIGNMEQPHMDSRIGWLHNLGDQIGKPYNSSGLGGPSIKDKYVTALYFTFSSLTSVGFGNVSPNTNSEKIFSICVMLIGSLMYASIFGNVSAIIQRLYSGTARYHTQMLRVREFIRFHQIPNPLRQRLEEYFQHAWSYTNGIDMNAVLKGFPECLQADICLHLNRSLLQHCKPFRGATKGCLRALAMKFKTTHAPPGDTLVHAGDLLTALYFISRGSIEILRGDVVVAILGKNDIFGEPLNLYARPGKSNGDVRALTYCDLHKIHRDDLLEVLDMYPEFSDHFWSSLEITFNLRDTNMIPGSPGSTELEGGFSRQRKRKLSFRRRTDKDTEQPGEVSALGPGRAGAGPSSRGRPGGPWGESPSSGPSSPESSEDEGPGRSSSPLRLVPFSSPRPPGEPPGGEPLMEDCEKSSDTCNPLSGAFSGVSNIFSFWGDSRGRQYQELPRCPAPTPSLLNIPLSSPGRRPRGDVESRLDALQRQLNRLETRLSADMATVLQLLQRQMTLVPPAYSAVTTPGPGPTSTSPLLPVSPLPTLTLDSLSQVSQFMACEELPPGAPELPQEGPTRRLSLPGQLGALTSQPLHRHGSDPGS

[12] = target: Cytochrome P450 2C19 (Homo sapiens, UniProt P33261); test: Cytochrome panel assay with activity outcomes. Panel member name: p450-cyp2c19 Compounds with AC50 equal or less than 10 uM are considered active; format: functional; conditions: read-out: AC50
Cytochrome P450 2C19, sequence (P33261 whole entry): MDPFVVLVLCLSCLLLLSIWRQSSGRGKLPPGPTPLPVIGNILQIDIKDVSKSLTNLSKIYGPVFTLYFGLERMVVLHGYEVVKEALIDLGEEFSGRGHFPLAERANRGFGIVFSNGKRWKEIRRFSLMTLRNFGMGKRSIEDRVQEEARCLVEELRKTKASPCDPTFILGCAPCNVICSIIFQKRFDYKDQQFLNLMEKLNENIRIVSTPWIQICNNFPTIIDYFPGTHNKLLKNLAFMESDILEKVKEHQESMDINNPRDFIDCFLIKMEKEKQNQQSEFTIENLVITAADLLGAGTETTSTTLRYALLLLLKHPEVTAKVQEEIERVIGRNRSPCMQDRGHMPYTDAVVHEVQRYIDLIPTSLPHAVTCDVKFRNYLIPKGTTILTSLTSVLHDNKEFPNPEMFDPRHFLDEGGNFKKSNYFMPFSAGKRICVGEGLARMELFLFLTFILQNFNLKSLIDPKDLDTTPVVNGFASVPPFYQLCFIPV

[13] = system: HT-1080; test: cytotoxicity in HT1080 fibrosarcoma cells, cell-based, fluorescence readout (AID 620); format: functional; conditions: Homo sapiens
[14] = target: Luciferin 4-monooxygenase (Photinus pyralis, UniProt P08659); test: Counter Screen for Luciferase-based Assay Positives. [Related pubchem assays: 620, 618, 411 ]
Luciferin 4-monooxygenase, sequence (P08659 whole entry): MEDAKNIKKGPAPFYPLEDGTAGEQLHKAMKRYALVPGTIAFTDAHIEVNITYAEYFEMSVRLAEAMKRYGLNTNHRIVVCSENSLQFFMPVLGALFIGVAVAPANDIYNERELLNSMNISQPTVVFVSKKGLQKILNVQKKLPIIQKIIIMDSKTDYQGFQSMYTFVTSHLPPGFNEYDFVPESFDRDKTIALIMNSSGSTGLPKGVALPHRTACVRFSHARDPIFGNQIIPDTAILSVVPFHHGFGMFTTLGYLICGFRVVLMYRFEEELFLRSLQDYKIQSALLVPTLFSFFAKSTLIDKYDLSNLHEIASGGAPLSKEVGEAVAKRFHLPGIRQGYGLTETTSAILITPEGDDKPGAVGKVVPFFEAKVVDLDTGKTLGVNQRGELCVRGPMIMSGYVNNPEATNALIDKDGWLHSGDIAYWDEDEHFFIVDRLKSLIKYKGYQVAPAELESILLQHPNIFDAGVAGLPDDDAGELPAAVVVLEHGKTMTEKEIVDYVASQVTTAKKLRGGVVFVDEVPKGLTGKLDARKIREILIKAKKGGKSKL

[15] = target: T1, Polyadenylate-binding protein 1 (Homo sapiens, UniProt P11940); test: PABP1 MLLE–PAM2 interaction inhibitors, dose response, miRNA deadenylation inhibitor project, biochemical, fluorescence polarization, Cy5-PAM2 peptide, secondary (AID 602260); format: functional; conditions: read-out: IC50_Mean
T1 sequence (P11940 whole entry): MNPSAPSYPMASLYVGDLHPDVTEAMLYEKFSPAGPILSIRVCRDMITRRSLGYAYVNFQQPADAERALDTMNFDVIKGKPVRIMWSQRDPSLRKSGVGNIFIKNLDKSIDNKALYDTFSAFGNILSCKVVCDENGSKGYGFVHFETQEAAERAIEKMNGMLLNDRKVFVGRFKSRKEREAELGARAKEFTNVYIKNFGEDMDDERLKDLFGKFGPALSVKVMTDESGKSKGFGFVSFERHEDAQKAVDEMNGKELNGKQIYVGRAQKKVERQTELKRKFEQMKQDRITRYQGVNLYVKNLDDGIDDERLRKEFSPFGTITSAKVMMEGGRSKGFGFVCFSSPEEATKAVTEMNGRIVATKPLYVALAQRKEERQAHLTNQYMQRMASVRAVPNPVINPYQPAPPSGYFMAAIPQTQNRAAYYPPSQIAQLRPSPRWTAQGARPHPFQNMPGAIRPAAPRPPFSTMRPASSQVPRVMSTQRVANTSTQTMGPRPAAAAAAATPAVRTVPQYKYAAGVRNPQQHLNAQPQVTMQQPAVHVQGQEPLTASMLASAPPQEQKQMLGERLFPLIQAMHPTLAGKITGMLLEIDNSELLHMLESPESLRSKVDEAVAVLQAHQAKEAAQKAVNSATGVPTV

[16] = target: T1, Polyadenylate-binding protein 1; test: PABP1 MLLE–PAM2 binding inhibitor potency, dose response, biochemical, fluorescence polarization, FITC-PAM2 peptide (AID 602259); format: functional; conditions: read-out: IC50_Mean
[17] = target: Kallikrein-7 (Homo sapiens, UniProt P49862); test: Fluorescence Intensity-based biochemical primary high throughput dose response assay to identify activators of kallikrein-7 (K7) zymogen.
Kallikrein-7, sequence (P49862 whole entry): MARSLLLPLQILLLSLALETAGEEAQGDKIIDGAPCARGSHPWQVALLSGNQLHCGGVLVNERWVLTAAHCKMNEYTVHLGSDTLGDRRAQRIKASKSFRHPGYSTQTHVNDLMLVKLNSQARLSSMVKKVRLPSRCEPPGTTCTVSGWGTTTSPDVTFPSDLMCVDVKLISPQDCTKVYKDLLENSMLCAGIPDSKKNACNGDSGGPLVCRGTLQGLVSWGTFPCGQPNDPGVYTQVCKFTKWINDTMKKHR

[18] = Counterscreen for IDE inhibitors: Luminescence-based cell-based high throughput dose response assay to identify compounds that are cytotoxic to HEK cells. [Related pubchem assays: 434962 (Primary screen (IDE inhibitors in singlicate)), 449730 (Counterscreen (Cytotoxicity in triplicate)), 435028 (Confirmation (IDE inhibitors in triplicate)) …; format: functional; conditions: HEK293
[19] = target: T2, Insulin-degrading enzyme (Homo sapiens, UniProt P14735); test: Dose Response: Fluorescence polarization-based cell-based high throughput dose response assay for inhibitors of insulin-degrading enzyme (IDE). [Related pubchem assays: 434962 (Primary screen (IDE inhibitors in singlicate)), 449730 (Counterscreen (Cytotoxicity in triplicate)), 435028 (Confirmation (IDE inhibitors in triplicate)), 434984 (Summary …; format: functional
T2 sequence (P14735 whole entry): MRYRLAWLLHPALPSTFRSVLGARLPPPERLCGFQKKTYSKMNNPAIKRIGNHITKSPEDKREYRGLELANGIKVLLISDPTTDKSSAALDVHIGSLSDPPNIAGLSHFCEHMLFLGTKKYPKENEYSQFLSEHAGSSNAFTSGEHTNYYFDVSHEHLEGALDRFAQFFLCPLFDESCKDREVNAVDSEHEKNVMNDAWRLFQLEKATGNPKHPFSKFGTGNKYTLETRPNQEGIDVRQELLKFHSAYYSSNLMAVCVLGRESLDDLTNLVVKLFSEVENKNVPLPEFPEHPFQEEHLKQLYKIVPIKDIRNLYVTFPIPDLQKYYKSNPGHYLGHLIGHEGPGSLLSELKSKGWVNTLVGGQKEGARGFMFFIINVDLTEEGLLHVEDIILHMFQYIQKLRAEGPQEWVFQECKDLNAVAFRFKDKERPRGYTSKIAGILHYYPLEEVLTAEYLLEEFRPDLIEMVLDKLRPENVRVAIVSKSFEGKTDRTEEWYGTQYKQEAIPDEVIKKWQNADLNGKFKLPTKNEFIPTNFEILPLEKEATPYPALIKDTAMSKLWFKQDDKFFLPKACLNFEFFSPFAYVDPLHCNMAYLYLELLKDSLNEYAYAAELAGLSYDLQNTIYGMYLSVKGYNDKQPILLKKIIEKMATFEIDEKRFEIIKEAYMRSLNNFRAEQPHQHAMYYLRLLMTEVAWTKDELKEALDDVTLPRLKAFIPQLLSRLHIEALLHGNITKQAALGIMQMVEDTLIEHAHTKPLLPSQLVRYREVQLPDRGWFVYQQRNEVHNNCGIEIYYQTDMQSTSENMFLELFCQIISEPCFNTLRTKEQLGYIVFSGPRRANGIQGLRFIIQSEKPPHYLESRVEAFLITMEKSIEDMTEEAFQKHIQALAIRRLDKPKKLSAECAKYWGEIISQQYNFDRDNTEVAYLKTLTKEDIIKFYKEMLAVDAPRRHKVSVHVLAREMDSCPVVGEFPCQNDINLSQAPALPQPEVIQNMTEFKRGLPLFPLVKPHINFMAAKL

[20] = target: Prothrombin (Homo sapiens, UniProt P00734); test: Thrombin 1536 HTS Dose Response Confirmation. [Related pubchem assays: 1046 (Thrombin 1536 HTS; hits were confirmed in this assay)]; format: functional
[21] = target: T3, Streptokinase A (Streptococcus pyogenes serotype M1, UniProt P10520); test: S. pyogenes streptokinase expression inhibitors, potency, dose response, plasminogen activation absorbance, OD405 (AID 1914); format: functional, Streptococcus pyogenes M1 GAS;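 note: secreted streptokinase activity via plasminogen activation per viability signal from cell pellet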
T3 sequence (P10520 whole entry): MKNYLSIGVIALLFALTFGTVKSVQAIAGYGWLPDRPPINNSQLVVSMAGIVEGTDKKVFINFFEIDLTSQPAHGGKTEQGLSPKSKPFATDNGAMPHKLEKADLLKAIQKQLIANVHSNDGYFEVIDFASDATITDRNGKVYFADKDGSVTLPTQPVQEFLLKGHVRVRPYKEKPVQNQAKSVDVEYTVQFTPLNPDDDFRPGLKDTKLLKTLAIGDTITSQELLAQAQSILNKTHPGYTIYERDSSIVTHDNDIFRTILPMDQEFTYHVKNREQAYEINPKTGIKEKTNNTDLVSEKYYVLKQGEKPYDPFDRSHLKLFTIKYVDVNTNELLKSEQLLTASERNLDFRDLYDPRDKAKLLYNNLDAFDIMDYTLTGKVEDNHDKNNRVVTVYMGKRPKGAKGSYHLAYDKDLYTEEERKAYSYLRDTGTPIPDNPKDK

[22] = target: Eukaryotic translation initiation factor 4E (Mus musculus, UniProt P63073); test: eIF4E–eIF4G protein interaction inhibitors, dose response, biochemical, TR-FRET (AID 855); format: functional;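 note: potency for disrupting eIF4E binding to eIF4GI seen as loss of FRET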
Eukaryotic translation initiation factor 4E, sequence (P63073 whole entry): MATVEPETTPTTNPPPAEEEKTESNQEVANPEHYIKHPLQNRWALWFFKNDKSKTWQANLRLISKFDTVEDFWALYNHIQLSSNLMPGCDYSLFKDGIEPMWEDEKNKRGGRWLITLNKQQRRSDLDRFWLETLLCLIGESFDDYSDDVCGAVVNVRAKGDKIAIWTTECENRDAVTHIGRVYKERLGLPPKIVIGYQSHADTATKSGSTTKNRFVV

[23] = system: Streptococcus; test: Group A Streptococcus viability loss, dose response, counter-screen for streptokinase expression inhibitor project, luminescence, BacTiterGlo (AID 1915); format: functional, organism-based;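 note: potency for reduction of bacterial viability or growth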
[24] = system: Streptococcus sp. 'group A'; test: growth inhibition of control SK(-) GAS strain, dose response, counter-screen for streptokinase expression inhibitor project, luminescence, kanamycin, BacTiterGlo, confirmation (AID 1900); format: functional, organism-based
[25] = cytotoxicity in OVCAR8 ovarian cancer cells, dose response, PAX8 project, cell-based, plate reader, dry powder samples (AID 743197); format: functional; conditions: OVCAR-8
[26] = IGROV1 ovarian cancer cell cytotoxicity, dose response, PAX8 inhibitor project, plate reader, dry powder samples (AID 743043); format: functional, cell-based; conditions: IGROV-1
[27] = A2780 ovarian cancer cell cytotoxicity, dose response, cytotoxicity control, plate reader, dry powder samples (AID 743046); format: functional, cell-based
[28] = IOSE-T80 ovarian epithelial cell cytotoxicity, dose response, cytotoxicity control for PAX8 inhibitor project, plate reader, dry powder samples (AID 743045); format: functional, cell-based
[29] = target: Paired box protein Pax-8 (Homo sapiens, UniProt Q06710); test: inhibitors of PAX8-driven TPO luciferase reporter, dose response, RMG-I cells, cherry-pick (AID 687027); format: functional, cell-based;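 note: luciferase reporter driven by Pax8 target thyroperoxidase promoter measured by SteadyGlo luminescence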
Paired box protein Pax-8, sequence (Q06710 whole entry): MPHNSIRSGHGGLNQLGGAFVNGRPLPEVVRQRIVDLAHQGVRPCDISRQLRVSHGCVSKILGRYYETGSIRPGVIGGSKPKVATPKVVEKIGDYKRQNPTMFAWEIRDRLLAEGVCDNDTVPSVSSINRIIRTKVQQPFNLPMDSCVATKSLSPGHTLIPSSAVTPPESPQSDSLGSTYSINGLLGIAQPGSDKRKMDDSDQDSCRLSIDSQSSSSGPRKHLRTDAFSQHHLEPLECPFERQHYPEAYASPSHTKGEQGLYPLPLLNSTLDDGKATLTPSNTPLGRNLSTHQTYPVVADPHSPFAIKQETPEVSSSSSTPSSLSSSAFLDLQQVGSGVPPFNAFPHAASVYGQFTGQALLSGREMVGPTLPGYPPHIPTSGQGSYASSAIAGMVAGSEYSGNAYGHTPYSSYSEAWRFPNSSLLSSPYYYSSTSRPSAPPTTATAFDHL

[30] = NIH:OVCAR-3 ovarian cancer cell cytotoxicity, dose response, PAX8 inhibitor project, plate reader, dry powder samples (AID 743044); format: functional, cell-based
[31] = HepG2 cell cytotoxicity, dose response, cytotoxicity control, plate reader, dry powder samples (AID 1159569); format: functional, cell-based;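 note: inhibitor potency with signal falling toward the positive control level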
[32] = P. falciparum ATP4 D1247Y mutant growth inhibitors, dose response, NITD609-resistant line, SYBR Green, dry powder (AID 1159571); format: functional, cell-based;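 note: parasites synchronized at ring stage by sorbitol before testing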
[33] = P. falciparum Dd2 growth inhibitors, dose response, SYBR Green, dry powder samples (AID 1159566); format: functional, cell-based;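 note: potency for growth inhibition with lower SYBR green DNA signal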
[34] = P. falciparum Dd2 growth inhibitors, dose response, SYBR Green, cherry-picked samples (AID 1159567); format: functional, cell-based
[35] = system: HEK293; test: cells; conditions: Homo sapiens
[36] = system: HEK293; test: cells; conditions: Homo sapiens; remark: listed apart in the source
[37] = P. falciparum 3D7-ScDHODH growth inhibitors, dose response, SYBR Green, dry powder samples (AID 1159570); format: functional, cell-based;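 note: parasite growth measured after 72 hours of compound exposure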

DNA dC->dU-editing enzyme APOBEC-3G, sequence (Q9HC16 whole entry): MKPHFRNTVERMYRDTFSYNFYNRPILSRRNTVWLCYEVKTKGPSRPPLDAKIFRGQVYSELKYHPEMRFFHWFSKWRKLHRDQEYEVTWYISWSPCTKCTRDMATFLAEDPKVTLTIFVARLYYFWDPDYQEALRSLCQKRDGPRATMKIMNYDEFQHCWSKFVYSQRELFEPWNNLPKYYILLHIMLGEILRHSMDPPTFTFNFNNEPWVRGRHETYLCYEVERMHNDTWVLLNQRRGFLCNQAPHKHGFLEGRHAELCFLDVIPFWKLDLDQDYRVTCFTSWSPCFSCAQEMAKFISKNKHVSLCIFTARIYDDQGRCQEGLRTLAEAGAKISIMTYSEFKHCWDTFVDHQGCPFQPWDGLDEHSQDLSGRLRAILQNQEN

Compound: CCN(CC)c1ccc(NC(=O)COc2ccccc2C)cc1S(=O)(=O)Nc1ccccc1OC
- IC50 [1]: 70.1 µM (active)
- IC50 [2]: > 69.5 µM (inactive)
- IC50 [3]: > 69.5 µM (inactive)

Compound: NC(=O)N/N=C/c1ccc([N+](=O)[O-])o1 [NITROFURAZONE]
- IC50 [4]: > 20 µM (inactive)
- IC50 [5]: > 20 µM (inactive)
- IC50 [6]: > 20 µM (inactive)
- IC50 [7]: > 20 µM (inactive)
- IC50 [8]: > 20 µM (inactive)
- IC50 [9]: > 20 µM (inactive)
- IC50 [10]: > 20 µM (inactive)

Compound: CCN(CC)C(=S)NC(=O)c1ccc(OC)c(Br)c1
- EC50 [11]: 0.66 µM (active)

Compound: Cc1oncc1C(=O)Nc1ccc(C(F)(F)F)cc1 [LEFLUNOMIDE]
- AC50 [12]: 15.8 µM (inconclusive)
- EC50 [13]: > 50 µM (not active)
- EC50 [14]: 0.84 µM (active)

Compound: O=C(NC(=S)Nc1nc(-c2ccccc2)cs1)c1cncc(Br)c1
- IC50 [15]: > 66 µM (inactive)
- IC50 [16]: > 66 µM (inactive)
- EC50 [11]: 11.2 µM (active)

Compound: CC(c1nc2ccccc2[nH]1)n1c(=O)c(-c2cccs2)nc2ccccc21 (centres undefined)
- EC50 [17]: 8.14 µM (active)

Compound: N#Cc1c(NC(=O)CCn2cnc3ccccc3c2=O)oc(-c2ccccc2)c1-c1ccccc1
- IC50 [2]: > 69.5 µM (inactive)
- IC50 [3]: > 69.5 µM (inactive)

Compound: CC1CCN(c2ccc3c(c2)S(=O)(=O)c2cccc(C(=O)NC4CC4)c2C3=O)CC1
- IC50 [18]: 22.6 µM (not active)
- IC50 [19]: > 55.9 µM (not active)

Compound: CN(C)S(=O)(=O)c1ccc(C(=O)Oc2cc(O)nc3ccccc23)cc1
- IC50 [20]: 0.812 µM (active)

Compound: Nc1ccc2[nH]c(-c3cc(Cl)c(N)c(Cl)c3)nc2c1
- EC50 [21]: > 150 µM (not active)
- EC50 [17]: > 69.5 µM (inactive)
- IC50 [22]: > 64 µM (inactive)
- EC50 [23]: > 150 µM (not active)
- EC50 [24]: 42.8 µM (active)

Compound: COC(=O)c1sccc1NS(=O)(=O)c1ccc(F)cc1F
- EC50 [11]: 2.94 µM (active)

Compound: C[C@H](CO)N1C[C@H](C)[C@@H](CN(C)Cc2ccncc2)Oc2ccc(NC(=O)Nc3ccc(C(F)(F)F)cc3)cc2CC1=O
- AC50 [25]: > 70 µM (inactive)
- AC50 [26]: 26.8 µM (active)
- AC50 [27]: 32.5 µM (active)
- AC50 [28]: 37.6 µM (active)
- AC50 [29]: 5.69 µM (active)
- AC50 [30]: 22.8 µM (active)

Compound: N=c1c(C(=O)NCC2CCCO2)cc2c(=O)n3ccccc3nc2n1C1CCCC1 (centres undefined)
- EC50 [17]: 24.4 µM (inactive)

Compound: CCc1ccccc1N1C(=O)CC(=O)NC1=O
- IC50 [20]: > 50 µM (not active)

Compound: Cc1ccc(NC(=O)N2CCc3ccccc32)cc1
- EC50 [13]: > 50 µM (not active)
- EC50 [14]: 0.72 µM (active)

Compound: Cc1cccc(C(=O)Nc2ccnc(-c3cccnc3)n2)c1
- IC50 [18]: 35.7 µM (not active)
- IC50 [19]: 7 µM (active)

Compound: C[C@H](CO)N1C[C@H](C)[C@H](CN(C)S(=O)(=O)c2ccc(Cl)cc2)OCc2ccccc2-c2c(n(C)c3ccccc23)C1=O
- AC50 [31]: 35.5 µM (active)
- AC50 [25]: 41.6 µM (active)
- AC50 [32]: 0.129 µM (active)
- AC50 [33]: 0.0741 µM (active)
- AC50 [26]: 62.3 µM (active)
- AC50 [34]: < 0.35 µM (active)
- IC50 [2]: 9.56 µM (active)
- EC50 [35]: > 59.7 µM (inactive)
- EC50 [36]: > 59.7 µM (inactive)
- AC50 [37]: 0.193 µM (active)
- AC50 [29]: 4.86 µM (active)
- IC50 [3]: > 69.5 µM (inactive)
- AC50 [30]: 26.2 µM (active)
